Results as given in ChEMBL document CHEMBL3046007, “Isonicotinic acid hydrazide derivatives: synthesis, antimicrobial activity, and QSAR studies” (Med Chem Res, 2012).
≈ marks a conversion by molar mass, not a printed value.

Tests used:
Punta Toro virus = experiment: Antiviral activity against Punta Toro virus infected Vero cells assessed as inhibition of virus-induced cytopathicity; type: functional, organism-based
[1] = system: Human immunodeficiency virus 1; experiment: Antiviral activity against Human immunodeficiency virus 1 IIIB infected human MT4 cells assessed as inhibition of virus-induced cytopathicity; type: functional, organism-based
Staphylococcus aureus = experiment: Antimicrobial activity against Staphylococcus aureus after 24 hr by serial dilution method; type: functional
Human alphaherpesvirus 1 [2] = experiment: Antiviral activity against TK(-) aciclovir-resistant Human herpesvirus 1 strain KOS infected in human HEL cells assessed as inhibition of virus-induced cytopathicity; type: functional, organism-based; details: Human alphaherpesvirus 1, KOS
Sindbis virus = experiment: Antiviral activity against Sindbis virus infected Vero cells assessed as inhibition of virus-induced cytopathicity; type: functional, organism-based
Escherichia coli = experiment: Antimicrobial activity against Escherichia coli after 24 hr by serial dilution method; type: functional
Aspergillus niger = experiment: Antimicrobial activity against Aspergillus niger after 7 days by serial dilution method; type: functional
Human alphaherpesvirus 2 = experiment: Antiviral activity against Human herpesvirus 2 strain G infected human HEL cells assessed as inhibition of virus-induced cytopathicity; type: functional, organism-based; details: Human alphaherpesvirus 2, strain G
Human respirovirus 3 = experiment: Antiviral activity against Human parainfluenza virus 3 infected Vero cells assessed as inhibition of virus-induced cytopathicity; type: functional, organism-based; details: Human respirovirus 3, Vero
[3] = Cytotoxicity against Homo sapiens (human) HeLa cells; type: cell-based
[4] = system: Mammalian orthoreovirus 1; experiment: Antiviral activity against Mammalian orthoreovirus 1 infected Vero cells assessed as inhibition of virus-induced cytopathicity; type: functional, organism-based; details: Mammalian orthoreovirus 1, Vero
Coxsackievirus B4 [5] = experiment: Antiviral activity against Human coxsackievirus B4 infected Vero cells assessed as inhibition of virus-induced cytopathicity; type: functional, organism-based; details: Enterovirus B
[6] = system: Respiratory syncytial virus; experiment: Antiviral activity against Respiratory syncytial virus infected human HeLa cells assessed as inhibition of virus-induced cytopathicity; type: functional, organism-based
Coxsackievirus B4 [7] = experiment: Antiviral activity against Human coxsackievirus B4 infected human HeLa cells assessed as inhibition of virus-induced cytopathicity; type: functional, organism-based; details: Enterovirus B
Candida albicans = experiment: Antimicrobial activity against Candida albicans after 48 hr by serial dilution method; type: functional
[8] = Cytotoxicity against Homo sapiens (human) MT4 cells; type: cell-based
Vaccinia virus = experiment: Antiviral activity against Vaccinia virus infected human HEL cells assessed as inhibition of virus-induced cytopathicity; type: functional, organism-based; details: Orthopoxvirus vaccinia
Bacillus subtilis = experiment: Antimicrobial activity against Bacillus subtilis after 24 hr by serial dilution method; type: functional
[9] = system: Vesicular stomatitis virus; experiment: Antiviral activity against Vesicular stomatitis virus infected human HeLa cells assessed as inhibition of virus-induced cytopathicity; type: functional, organism-based
[10] = system: Human immunodeficiency virus 2; experiment: Antiviral activity against Human immunodeficiency virus type 2 (ISOLATE ROD) infected human MT4 cells assessed as inhibition of virus-induced cytopathicity; type: functional, organism-based; details: Human immunodeficiency virus 2, ISOLATE ROD
[11] = Cytotoxicity against Homo sapiens (human) HEL cells; type: cell-based
Human alphaherpesvirus 1 [12] = experiment: Antiviral activity against Human herpesvirus 1 strain KOS infected in human HEL cells assessed as inhibition of virus-induced cytopathicity; type: functional, organism-based; details: Human alphaherpesvirus 1, KOS
[13] = Cytotoxicity against Chlorocebus aethiops (African green monkey) Vero cells assessed as alteration in cell morphology; type: cell-based; details: chlorocebus sabaeus

Compound: CCOc1cc(/C=N/NC(=O)c2ccncc2)ccc1O
- EC50 (Punta Toro virus): > 100 µg/mL
- EC50 [1]: > 102 µg/mL
- -logMIC (Staphylococcus aureus): 2.06
- EC50 (Human alphaherpesvirus 1 [2]): > 100 µg/mL
- EC50 (Sindbis virus): > 100 µg/mL
- -logMIC (Escherichia coli): 2.36
- -logMIC (Aspergillus niger): 2.36
- EC50 (Human alphaherpesvirus 2): > 100 µg/mL
- EC50 (Human respirovirus 3): > 100 µg/mL
- MCC [3]: > 100 µg/mL
- EC50 [4]: > 100 µg/mL
- EC50 (Coxsackievirus B4 [5]): > 100 µg/mL
- EC50 [6]: > 100 µg/mL
- EC50 (Coxsackievirus B4 [7]): > 100 µg/mL
- -logMIC (Candida albicans): 2.36
- CC50 [8]: 102 µg/mL (≈ 358 µM)
- EC50 (Vaccinia virus): > 100 µg/mL
- -logMIC (Bacillus subtilis): 2.06
- EC50 [9]: > 100 µg/mL
- EC50 [10]: > 102 µg/mL
- MCC [11]: > 100 µg/mL
- EC50 (Human alphaherpesvirus 1 [12]): > 100 µg/mL
- MCC [13]: > 100 µg/mL

Compound: COc1cccc(OC)c1/C=N/NC(=O)c1ccncc1
- EC50 (Punta Toro virus): > 20 µg/mL
- EC50 [1]: > 9 µg/mL
- -logMIC (Staphylococcus aureus): 2.06
- EC50 (Human alphaherpesvirus 1 [2]): > 100 µg/mL
- EC50 (Sindbis virus): > 20 µg/mL
- -logMIC (Escherichia coli): 2.06
- -logMIC (Aspergillus niger): 2.36
- EC50 (Human alphaherpesvirus 2): > 100 µg/mL
- EC50 (Human respirovirus 3): > 20 µg/mL
- MCC [3]: 100 µg/mL
- EC50 [4]: > 20 µg/mL
- EC50 (Coxsackievirus B4 [5]): > 20 µg/mL
- EC50 [6]: > 20 µg/mL
- EC50 (Coxsackievirus B4 [7]): > 20 µg/mL
- -logMIC (Candida albicans): 2.36
- CC50 [8]: 9 µg/mL (≈ 31.5 µM)
- EC50 (Vaccinia virus): > 100 µg/mL
- -logMIC (Bacillus subtilis): 2.06
- EC50 [9]: > 20 µg/mL
- EC50 [10]: > 9 µg/mL
- MCC [11]: > 100 µg/mL
- EC50 (Human alphaherpesvirus 1 [12]): > 100 µg/mL
- MCC [13]: 100 µg/mL

Compound: COc1cc(/C=N/NC(=O)c2ccncc2)ccc1O [FTIVAZIDE]
- EC50 (Punta Toro virus): > 100 µg/mL
- EC50 [1]: > 89 µg/mL
- -logMIC (Staphylococcus aureus): 2.04
- EC50 (Human alphaherpesvirus 1 [2]): > 100 µg/mL
- EC50 (Sindbis virus): > 100 µg/mL
- -logMIC (Escherichia coli): 2.34
- -logMIC (Aspergillus niger): 2.34
- EC50 (Human alphaherpesvirus 2): > 100 µg/mL
- EC50 (Human respirovirus 3): > 100 µg/mL
- MCC [3]: 100 µg/mL
- EC50 [4]: > 100 µg/mL
- EC50 (Coxsackievirus B4 [5]): > 100 µg/mL
- EC50 [6]: > 20 µg/mL
- EC50 (Coxsackievirus B4 [7]): > 20 µg/mL
- -logMIC (Candida albicans): 2.34
- CC50 [8]: ≥ 89 µg/mL
- EC50 (Vaccinia virus): > 100 µg/mL
- -logMIC (Bacillus subtilis): 2.04
- EC50 [9]: > 20 µg/mL
- EC50 [10]: > 89 µg/mL
- MCC [11]: > 100 µg/mL
- EC50 (Human alphaherpesvirus 1 [12]): > 100 µg/mL
- MCC [13]: > 100 µg/mL

Compound: Cc1ccc(/C=N/NC(=O)c2ccncc2)cc1 [N'-(4-METHYLBENZYLIDENE)ISONICOTINOHYDRAZIDE]
- EC50 (Punta Toro virus): > 20 µg/mL
- EC50 [1]: > 25 µg/mL
- -logMIC (Staphylococcus aureus): 1.98
- EC50 (Human alphaherpesvirus 1 [2]): > 100 µg/mL
- EC50 (Sindbis virus): > 20 µg/mL
- -logMIC (Escherichia coli): 1.98
- -logMIC (Aspergillus niger): 2.28
- EC50 (Human alphaherpesvirus 2): > 100 µg/mL
- EC50 (Human respirovirus 3): > 20 µg/mL
- MCC [3]: 100 µg/mL
- EC50 [4]: > 20 µg/mL
- EC50 (Coxsackievirus B4 [5]): > 20 µg/mL
- EC50 [6]: > 20 µg/mL
- EC50 (Coxsackievirus B4 [7]): 9 µg/mL (≈ 37.6 µM)
- -logMIC (Candida albicans): 2.28
- CC50 [8]: 25 µg/mL (≈ 104 µM)
- EC50 (Vaccinia virus): > 100 µg/mL
- -logMIC (Bacillus subtilis): 1.98
- EC50 [9]: > 20 µg/mL
- EC50 [10]: > 25 µg/mL
- MCC [11]: > 100 µg/mL
- EC50 (Human alphaherpesvirus 1 [12]): > 100 µg/mL
- MCC [13]: ≥ 20 µg/mL
